Experimental data as given in PubChem BioAssay (NCI).
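Following 48 hours of exposure in 96-well plates, responses at five concentrations were used to interpolate endpoints linearly. GI50 is the concentration that inhibits growth by half. TGI: total growth inhibition.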

Key:
Experiment in all cases: inhibition of tumour cell growth, NCI panel, 48 h
786-0 renal = system: 786-0 renal
A498 renal = system: A498 renal
COLO 205 colon = system: COLO 205 colon
NCI-H23 lung = system: NCI-H23 lung
OVCAR-8 ovarian = system: OVCAR-8 ovarian
SF-268 CNS = system: SF-268 CNS
SK-OV-3 ovarian = system: SK-OV-3 ovarian
SW-620 colon = system: SW-620 colon
UACC-257 melanoma = system: UACC-257 melanoma
CAKI-1 renal = system: CAKI-1 renal

Structure (SMILES) | TGI (786-0 renal) [µM] | TGI (A498 renal) [µM] | TGI (COLO 205 colon) [µM] | TGI (NCI-H23 lung) [µM] | TGI (OVCAR-8 ovarian) [µM] | TGI (SF-268 CNS) [µM] | TGI (SK-OV-3 ovarian) [µM] | TGI (SW-620 colon) [µM] | TGI (UACC-257 melanoma) [µM] | GI50 (A498 renal) [µM] | TGI (CAKI-1 renal) [µM] | GI50 (SW-620 colon) [µM] | GI50 (786-0 renal) [µM] | GI50 (CAKI-1 renal) [µM] | GI50 (NCI-H23 lung) [µM] | GI50 (OVCAR-8 ovarian) [µM] | GI50 (SF-268 CNS) [µM] | GI50 (UACC-257 melanoma) [µM] | GI50 (COLO 205 colon) [µM] | GI50 (SK-OV-3 ovarian) [µM]
COc1ccc(/C=C/C(=O)C(C)(C)CN2CCCCC2)cc1 | 29.9 | 38.5 | 30.6 | 54.7 | 37.7 | 59.8 | 61.7 | 14.2 | 46.2 |  |  |  |  |  |  |  |  |  |  | 
CC(/C=C/C(=O)c1sc(-n2nc(-c3ccccc3)cc2-c2ccccc2)nc1C)=C\c1ccccc1 | > 100 | > 100 |  | 68.1 | > 100 | > 100 | > 100 | > 100 | > 100 | > 100 | > 100 | > 100 |  |  |  |  |  |  |  | 
CC(=O)[O-].CC(=O)[O-].O=C(N/N=C/c1cc(Cl)cc(Cl)c1O)c1ccncc1.[Ni+2] | > 100 | > 100 | > 100 | > 100 | > 100 | > 100 | > 100 | 83.5 | 96.6 |  |  |  |  |  |  |  |  |  |  | 
Nc1nc(Cl)cc(NCCCCCNc2cc(Cl)nc(N)n2)n1 | > 100 |  | > 100 | > 100 | > 100 | > 100 | > 100 | > 100 | > 100 |  | > 100 |  |  |  |  |  |  |  |  | 
COCc1c(CO)cnc(C)c1OC1OC(CO)C(O)C(O)C1O (centres undefined) | > 100 | > 100 |  |  | > 100 | > 100 | > 100 | > 100 | > 100 |  | > 100 |  |  |  |  |  |  |  |  | 
O=Cc1ccc(-c2ccc(-c3nc4ccccc4[nH]3)cc2)s1 | 62.2 |  |  | 35 | 87.5 | 48.3 |  | > 100 | > 100 |  | 57.2 | 59.4 | 19 | 29.9 | 17.2 | 26.2 | 19.8 | 45.4 |  | 
CC1=C(C(=O)Nc2ccccc2)C(c2ccc([N+](=O)[O-])cc2)C(C(=O)Nc2ccccc2)=C(C)N1 | 59 | 93 |  | 64.7 | 35.8 | 57.9 |  | 38.5 | 53.8 |  |  |  |  |  |  |  |  |  |  | 
COc1cc(Br)c(CC2(C#N)c3ccccc3C3C(N2C(=O)c2ccccc2)C3(Cl)Cl)cc1OC (centres undefined) | > 65.5 |  | > 65.5 | > 65.5 | > 65.5 | > 65.5 | > 65.5 | > 65.5 | > 65.5 |  |  |  |  |  |  |  |  |  |  | 
O=C(NCCc1ccccc1)C(c1ccccc1)(c1ccccc1)c1ccccc1 | > 100 |  | > 100 |  | 4.44 | > 100 | > 100 | > 100 |  |  | 26.1 | 4.35 | 5.43 | 4.16 |  | 1.62 | 30 |  | 3.26 | 26
COc1cc2c(c(OC)c1O)-c1ccc(OC)c(=O)cc1[C@@H](NC(=O)C(F)(F)F)CC2 | > 100 | 2.21 | 0.0933 |  | > 100 | > 100 | > 100 | > 100 | > 100 |  | > 100 |  |  |  |  |  |  |  |  | 
COc1cc2c3c(c4ccc(OC)c(OC)c4c2cc1OC)CN1CCC[C@@H]1C3 | 1.78 | 0.0681 |  | 0.637 | 0.264 | 2.38 | 2.84 | > 47.7 | 17.7 |  | 1.1 |  |  |  |  |  |  |  |  | 
COc1c2c3ccccc3nc-2n(C)c2ccccc12 | 40.5 | 24.8 | 49.4 | 33.6 | > 100 | 30.4 |  | > 100 | 55.6 | 10.1 | > 100 | 7.97 | 6.54 | 19.2 | 11.7 | 25.7 | 10.2 | 21.9 | 6.73 | 
COC(=O)NC1(NC(=O)OC)NC(=O)c2cc(OC)c(OC)cc2N1 | > 100 |  | > 100 | > 100 | > 100 | > 100 |  | > 100 | > 100 |  | 61.9 |  |  |  |  |  |  |  |  | 
Cc1nc2ccccn2c1NC(=O)NNC(=S)Nc1ccc(Br)cc1 | > 100 | 88.1 | 84.5 |  | > 100 | > 100 | 82.8 | > 100 | > 100 | 32.8 | > 100 | 39.8 | 41.7 | 29.6 |  | 63.8 | 67.9 | 37.8 | 29.4 | 33
CCN(CC)CCCC(C)Nc1cc(-c2ccc(C(F)(F)F)cc2)c(C#N)c2nc3ccccc3n12 (centres undefined) | 2.93 | 2.9 |  | 4.22 | 5.51 | 4.43 | 4.75 | 3.99 | 3.75 | 1.47 | 12.5 | 1.92 | 1.51 | 2.89 | 1.86 | 2.41 | 1.9 | 2.08 |  | 2.22
